For the test, the target named is T1, CFTR (Homo sapiens, UniProt P13569, DEL508-508).
T1 construct: Primary CF airway epithelial cells were obtained from the UNC Cystic Fibrosis Tissue Procurement and Cell Culture Core; host or cells: primary CF airway epithelial cells, differentiated at the air-liquid interface
The test is described as follows: Equivalent current assay in primary CF airway epithelial cells (NAUC, combination with 1st site corrector FDL169 or VX-809). The test is classed as cell-based. To be noted: 37° C., 24 h.

[1] abbreviates: test compound 1 μM in combination with 1st site corrector VX-809 (3 μM).
Setting [2] is: test compound 3 μM in combination with 1st site corrector VX-809 (3 μM).
[3] abbreviates: test compound 10 μM in combination with 1st site corrector VX-809 (3 μM).
[4] abbreviates: test compound 10 μM in combination with 1st site corrector FDL169 (3 μM).
[5] abbreviates: test compound 1 μM in combination with 1st site corrector FDL169 (3 μM).
Where [6] appears, read: test compound 3 μM in combination with 1st site corrector FDL169 (3 μM).

T1 sequence (P13569 with tags, fused parts or gaps DEL508-508): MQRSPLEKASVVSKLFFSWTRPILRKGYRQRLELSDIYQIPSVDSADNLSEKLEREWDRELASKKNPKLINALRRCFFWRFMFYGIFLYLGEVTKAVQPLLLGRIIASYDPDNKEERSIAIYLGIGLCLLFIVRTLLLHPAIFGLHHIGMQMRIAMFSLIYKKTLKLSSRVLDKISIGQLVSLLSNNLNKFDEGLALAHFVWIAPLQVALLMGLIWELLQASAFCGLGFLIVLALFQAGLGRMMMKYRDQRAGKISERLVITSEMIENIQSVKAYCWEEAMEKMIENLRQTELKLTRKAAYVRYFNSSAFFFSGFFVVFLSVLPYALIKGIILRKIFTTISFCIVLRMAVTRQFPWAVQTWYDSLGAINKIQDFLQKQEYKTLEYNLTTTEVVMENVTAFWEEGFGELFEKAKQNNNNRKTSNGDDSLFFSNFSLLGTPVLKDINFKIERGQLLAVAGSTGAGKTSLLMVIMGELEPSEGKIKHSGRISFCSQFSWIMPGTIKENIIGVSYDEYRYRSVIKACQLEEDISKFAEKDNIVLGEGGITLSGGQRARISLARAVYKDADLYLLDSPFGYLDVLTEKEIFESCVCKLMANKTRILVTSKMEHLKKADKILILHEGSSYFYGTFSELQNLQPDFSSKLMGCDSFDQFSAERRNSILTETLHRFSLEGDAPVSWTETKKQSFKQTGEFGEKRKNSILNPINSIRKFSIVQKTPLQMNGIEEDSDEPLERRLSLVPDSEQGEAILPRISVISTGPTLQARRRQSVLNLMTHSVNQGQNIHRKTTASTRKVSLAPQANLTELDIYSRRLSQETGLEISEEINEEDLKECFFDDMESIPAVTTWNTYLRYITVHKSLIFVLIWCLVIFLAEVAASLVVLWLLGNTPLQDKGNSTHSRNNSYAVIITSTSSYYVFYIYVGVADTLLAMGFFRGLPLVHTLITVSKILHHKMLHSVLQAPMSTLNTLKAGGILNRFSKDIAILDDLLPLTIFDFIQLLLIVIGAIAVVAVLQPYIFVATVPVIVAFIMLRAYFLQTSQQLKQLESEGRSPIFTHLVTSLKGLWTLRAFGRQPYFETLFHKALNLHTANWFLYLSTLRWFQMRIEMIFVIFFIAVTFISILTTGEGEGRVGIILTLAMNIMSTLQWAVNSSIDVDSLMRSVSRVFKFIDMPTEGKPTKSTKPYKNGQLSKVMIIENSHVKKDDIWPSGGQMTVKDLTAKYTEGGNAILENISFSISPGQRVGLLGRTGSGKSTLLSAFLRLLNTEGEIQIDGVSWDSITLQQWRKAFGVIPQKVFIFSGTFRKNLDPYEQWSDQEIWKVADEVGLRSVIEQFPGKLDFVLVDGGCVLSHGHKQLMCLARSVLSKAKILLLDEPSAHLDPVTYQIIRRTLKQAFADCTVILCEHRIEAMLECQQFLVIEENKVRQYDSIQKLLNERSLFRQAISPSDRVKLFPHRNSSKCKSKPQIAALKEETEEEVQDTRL

With `C[C@]1(O)C[C@@H]2[C@H](C(=O)Nc3cc(Cl)cc(Cl)c3)[C@H](C(=O)NO)[C@@]3(C(=O)Nc4c(Cl)cc(Cl)cc43)N2C1` [Example 245, (1′R,2′S,6′S,7a′R)-5,7-dichloro-N1′-(3,5-dichlorophenyl)-N2′,6′-dihydroxy-6′-methyl-2-oxo-1′,2′,5′,6′,7′,7a′-hexahydrospiro[indoline-3,3′-pyrrolizine]-1′,2′-dicarboxamide], the “Nauc @ 1 μM” value under setting [1] is given as “+ (NAUC “+” refers to an observed NAUC <140% of positive control)”. Moreover, the “Nauc @ 3 μM” value under setting [2] is given as “++ (NAUC “++” refers to an observed NAUC 170-140% of positive control)”. For the same compound, the “Nauc @ 10 μM” value under setting [3] is recorded as “+++ (NAUC “+++” refers to an observed NAUC>170% of positive control)”.

Consider `CC(C)(C)c1cccc(C(C)(C)CNC(=O)[C@H]2[C@H]3CC(F)(F)CN3[C@]3(C(=O)Nc4c(Cl)cc(Cl)cc43)[C@H]2C(=O)O)c1` (racemic) [Example 288b, rac-(1′R,2′S,3R,7a′R)-1′-((2-(3-(tert-butyl)phenyl)-2-methylpropyl)carbamoyl)-5,7-dichloro-6′,6′-difluoro-2-oxo-1′,2′,5′,6′,7′,7a′-hexahydrospiro[indoline-3,3′-pyrrolizine]-2′-carboxylic acid], for which, under setting [3], the “Nauc @ 10 μM” value is “+ (NAUC “+” refers to an observed NAUC <140% of positive control)”.

On to `CN(C(=O)[C@H]1[C@H]2CC(F)(F)CN2C2(C(=O)Nc3c(Cl)cccc32)[C@H]1C(=O)O)c1cc(Cl)cc(Cl)c1` (stereo partly shown) [Example 104], for which, under setting [4], the “Nauc @ 10 μM” value was “+ (NAUC “+” refers to an observed NAUC <140% of positive control)”.

For `CN(C(=O)C1C2N(CCC2(F)F)C2(C(=O)Nc3c(Cl)cc(Cl)cc32)C1C(=O)O)c1cc(Cl)cc(Cl)c1` (single isomer, unassigned) [Example 268a, 5,7-dichloro-1′-((3,5-dichlorophenyl)(methyl)carbamoyl)-7′,7′-difluoro-2-oxo-1′,2′,5′,6′,7′,7a′-hexahydrospiro[indoline-3,3′-pyrrolizine]-2′-carboxylic acid], the “Nauc @ 1 μM” value under setting [1] was “+ (NAUC “+” refers to an observed NAUC <140% of positive control)”. Under setting [2], the “Nauc @ 3 μM” value is on record as “+ (NAUC “+” refers to an observed NAUC <140% of positive control)”. Besides, the “Nauc @ 10 μM” value under setting [3] is “+ (NAUC “+” refers to an observed NAUC <140% of positive control)”.

Regarding `O=C(Nc1cc(Cl)cc(Cl)c1)C1C(C(F)(F)c2cccc(Cl)c2)NC2(C(=O)Nc3c(Cl)cc(Cl)cc32)C1C(=O)O` (stereo not shown) [Example 68.c], the “Nauc @ 1 μM” value under setting [1] was “+ (NAUC “+” refers to an observed NAUC <140% of positive control)”. Also, under setting [2], the “Nauc @ 3 μM” value was “+++ (NAUC “+++” refers to an observed NAUC>170% of positive control)”. Further, the “Nauc @ 10 μM” value under setting [3] is recorded as “+++ (NAUC “+++” refers to an observed NAUC>170% of positive control)”.

For `CN(CC(C)(C)c1cccc(C(C)(C)C)c1)C(=O)[C@H]1[C@H]2CC(F)(F)CN2[C@]2(C(=O)Nc3c(Cl)cc(Cl)cc32)[C@H]1C(=O)O` [Example 170], the “Nauc @ 1 μM” value under setting [1] is reported as “+++ (NAUC “+++” refers to an observed NAUC>170% of positive control)”. Besides, under setting [2], the “Nauc @ 3 μM” value is given as “+ (NAUC “+” refers to an observed NAUC <140% of positive control)”. The “Nauc @ 10 μM” value under setting [3] is recorded as “+ (NAUC “+” refers to an observed NAUC <140% of positive control)”.

With `Cn1ccc2cc(NC(=O)[C@H]3[C@H]4CC(F)(F)CN4[C@]4(C(=O)Nc5c(Cl)cc(Cl)cc54)[C@H]3C(=O)O)ccc21` [Example 137], under setting [5], the “Nauc @ 1 μM” value is “+ (NAUC “+” refers to an observed NAUC <140% of positive control)”. Moreover, the “Nauc @ 3 μM” value under setting [6] is on record as “+ (NAUC “+” refers to an observed NAUC <140% of positive control)”.

As to `O=C(O)[C@H]1[C@@H](C(=O)N(c2cc(Cl)cc(Cl)c2)C2CC2)[C@H]2CC(F)(F)CN2[C@]12C(=O)Nc1c(Cl)cc(Cl)cc12` [Example 116], the “Nauc @ 1 μM” value under setting [1] is on record as “+++ (NAUC “+++” refers to an observed NAUC>170% of positive control)”. Further, the “Nauc @ 3 μM” value under setting [2] was “+++ (NAUC “+++” refers to an observed NAUC>170% of positive control)”. Also, the “Nauc @ 10 μM” value under setting [3] is recorded as “++ (NAUC “++” refers to an observed NAUC 170-140% of positive control)”.

For the compound `Cc1nn(C)cc1N(CC1CC1)C(=O)[C@H]1[C@H]2CC(F)(F)CN2[C@]2(C(=O)Nc3c(Cl)cc(Cl)cc32)[C@H]1C(=O)O` [Example 165], the “Nauc @ 1 μM” value under setting [5] is listed as “+ (NAUC “+” refers to an observed NAUC <140% of positive control)”. The “Nauc @ 3 μM” value under setting [6] is “+ (NAUC “+” refers to an observed NAUC <140% of positive control)”.

As for `CC(C)(C)c1cccc(CNC(=O)C2C3CC(F)(F)CN3C3(C(=O)Nc4c(Cl)cc(Cl)cc43)C2C(=O)O)c1` (stereo not shown) [Example 54], the “Nauc @ 3 μM” value under setting [2] was “+ (NAUC “+” refers to an observed NAUC <140% of positive control)”. Besides, the “Nauc @ 10 μM” value under setting [3] is on record as “+++ (NAUC “+++” refers to an observed NAUC>170% of positive control)”.

Consider `CN(C(=O)[C@H]1[C@H]2CC(F)(F)CN2[C@]2(C(=O)Nc3c(Cl)cc(Cl)cc32)[C@H]1C(=O)O)c1cc(Cl)cc(Cl)c1` [Example 169], for which, under setting [5], the “Nauc @ 1 μM” value is on record as “++ (NAUC “++” refers to an observed NAUC 170-140% of positive control)”. Besides, under setting [6], the “Nauc @ 3 μM” value is given as “+++ (NAUC “+++” refers to an observed NAUC>170% of positive control)”. Besides, under setting [4], the “Nauc @ 10 μM” value is listed as “+++ (NAUC “+++” refers to an observed NAUC>170% of positive control)”.

For the compound `O=C(Nc1cncc(C(F)(F)F)n1)C1C2CCCN2C2(C(=O)Nc3c(Cl)cc(Cl)cc32)C1C(=O)O` (stereo not shown) [Example 29], the “Nauc @ 3 μM” value under setting [2] is “++ (NAUC “++” refers to an observed NAUC 170-140% of positive control)”. Moreover, under setting [3], the “Nauc @ 10 μM” value is “+++ (NAUC “+++” refers to an observed NAUC>170% of positive control)”.

On to `O=C(Nc1cc(Cl)cc(Cl)c1)C1C(C(F)(F)c2ccccc2C(F)(F)F)NC2(C(=O)Nc3c(Cl)cc(Cl)cc32)C1C(=O)O` (stereo not shown) [Example 69.a], for which the “Nauc @ 10 μM” value under setting [3] is recorded as “+ (NAUC “+” refers to an observed NAUC <140% of positive control)”.

Turning to `CON(C)C(=O)[C@H]1[C@@H](C(=O)Nc2cc(Cl)cc(Cl)c2)[C@H]2CCCN2[C@]12C(=O)Nc1c(Cl)cc(Cl)cc12` (single isomer, unassigned) [Example 241, (1′R,2′ S,7a′R)-5,7-dichloro-N1′-(3,5-dichlorophenyl)-N2′-methoxy-N2′-methyl-2-oxo-1′,2′,5′,6′,7′,7a′-hexahydrospiro[indoline-3,3′-pyrrolizine]-1′,2′-dicarboxamide], under setting [1], the “Nauc @ 1 μM” value is reported as “++ (NAUC “++” refers to an observed NAUC 170-140% of positive control)”. Also, under setting [2], the “Nauc @ 3 μM” value is listed as “+++ (NAUC “+++” refers to an observed NAUC>170% of positive control)”. Besides, the “Nauc @ 10 μM” value under setting [3] was “++ (NAUC “++” refers to an observed NAUC 170-140% of positive control)”.

As to `CC(=O)N1C(COCc2ccccc2)C(C(=O)Nc2cc(Cl)cc(Cl)c2)C(C(=O)O)C12C(=O)Nc1c(Cl)cc(Cl)cc12` (stereo not shown) [Example 36], under setting [2], the “Nauc @ 3 μM” value is “+ (NAUC “+” refers to an observed NAUC <140% of positive control)”. The “Nauc @ 10 μM” value under setting [3] is on record as “+++ (NAUC “+++” refers to an observed NAUC>170% of positive control)”.

Regarding `O=C(Nc1ncnc2ccccc12)[C@H]1[C@H]2CC(F)(F)CN2[C@]2(C(=O)Nc3c(Cl)cc(Cl)cc32)[C@H]1C(=O)O` [Example 144], the “Nauc @ 1 μM” value under setting [5] is recorded as “+ (NAUC “+” refers to an observed NAUC <140% of positive control)”. Besides, the “Nauc @ 3 μM” value under setting [6] is recorded as “+ (NAUC “+” refers to an observed NAUC <140% of positive control)”.

Consider `O=C(Nc1cncc(C(F)(F)F)n1)C1C2CC3(CC3)CN2C2(C(=O)Nc3c(Cl)cc(Cl)cc32)C1C(=O)O` (stereo not shown) [Example 21], for which the “Nauc @ 3 μM” value under setting [2] was “+++ (NAUC “+++” refers to an observed NAUC>170% of positive control)”. The “Nauc @ 10 μM” value under setting [3] is “+++ (NAUC “+++” refers to an observed NAUC>170% of positive control)”.

Consider `CC(C)(C)c1cccc(CCNC(=O)C2C(C(F)(F)F)NC3(C(=O)Nc4c(Cl)cc(Cl)cc43)C2C(=O)O)c1` (stereo not shown) [Example 45], for which the “Nauc @ 3 μM” value under setting [2] is “+++ (NAUC “+++” refers to an observed NAUC>170% of positive control)”. Moreover, under setting [3], the “Nauc @ 10 μM” value is recorded as “+++ (NAUC “+++” refers to an observed NAUC>170% of positive control)”.

For the compound `CC(C)(C)c1cccc(C2(CNC(=O)[C@H]3[C@H]4CC(F)(F)CN4C4(C(=O)Nc5c(Cl)cc(Cl)cc54)[C@H]3C(=O)O)CC2)c1` (stereo partly shown) [Example 294], the “Nauc @ 1 μM” value under setting [1] was “+ (NAUC “+” refers to an observed NAUC <140% of positive control)”. For the same compound, under setting [2], the “Nauc @ 3 μM” value was “+++ (NAUC “+++” refers to an observed NAUC>170% of positive control)”. For the same compound, the “Nauc @ 10 μM” value under setting [3] is “+++ (NAUC “+++” refers to an observed NAUC>170% of positive control)”.

On to `COc1cc(C(F)(F)F)cc(N(C)C(=O)[C@H]2[C@H]3CC(F)(F)CN3[C@]3(C(=O)Nc4c(Cl)cc(Cl)cc43)[C@H]2C(=O)O)n1` [Example 133], for which the “Nauc @ 1 μM” value under setting [1] is “+++ (NAUC “+++” refers to an observed NAUC>170% of positive control)”. Moreover, under setting [2], the “Nauc @ 3 μM” value is listed as “+++ (NAUC “+++” refers to an observed NAUC>170% of positive control)”. Besides, the “Nauc @ 10 μM” value under setting [3] is “+++ (NAUC “+++” refers to an observed NAUC>170% of positive control)”.

For the compound `CC(C)(C)CN(C(=O)[C@H]1[C@H]2CC(F)(F)CN2[C@]2(C(=O)Nc3c(Cl)cc(Cl)cc32)[C@H]1C(=O)O)c1cc(Cl)cc(Cl)c1` [Example 110, (1′R,2′S,3R,7a′R)-5,7-dichloro-1-((3,5-dichlorophenyl)(neopentyl)carbamoyl)-6′,6′-difluoro-2-oxo-1′,2′,5′,6′,7′,7a′-hexahydrospiro[indoline-3,3′-pyrrolizine]-2′-carboxylic acid], the “Nauc @ 1 μM” value under setting [5] is listed as “+++ (NAUC “+++” refers to an observed NAUC>170% of positive control)”. Under setting [6], the “Nauc @ 3 μM” value is listed as “+++ (NAUC “+++” refers to an observed NAUC>170% of positive control)”. Also, under setting [4], the “Nauc @ 10 μM” value was “+ (NAUC “+” refers to an observed NAUC <140% of positive control)”.

These data come from patent publication US20230055237A1, “COMPOUNDS AND METHODS FOR THE TREATMENT OF CYSTIC FIBROSIS” (Flatley Discovery Lab, LLC, priority 2019, published 2023).
